No end group written: not given here.
T1: myc-GrB-EHITSN (Homo sapiens, UniProt Q15811)
T1 construct: with a conserved cleavage site (IDQD^271GK) throughout the evolution; expressed in transfected cells; host or cells: endothelial cells (ECs), stably transfected, neomycin-selected; lysates resolved by SDS-PAGE and blotted
T1 sequence (Q15811 1-271): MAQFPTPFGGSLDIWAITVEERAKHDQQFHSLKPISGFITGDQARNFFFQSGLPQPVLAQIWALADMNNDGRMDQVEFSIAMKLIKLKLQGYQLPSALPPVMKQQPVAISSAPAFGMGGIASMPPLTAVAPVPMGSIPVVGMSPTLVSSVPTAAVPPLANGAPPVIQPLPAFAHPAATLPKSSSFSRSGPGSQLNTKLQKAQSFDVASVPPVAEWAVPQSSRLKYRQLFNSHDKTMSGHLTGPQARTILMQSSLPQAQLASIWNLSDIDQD

B1: myc-GrB-EHITSN: myc-tagged granzyme B cleavage fragment of intersectin-1s (two EH domains), expressed from DNA plasmid delivered via cationic liposomes (protein)
chain: T1 sequence (Q15811 1-271)
modifications: left off: small tags and cut ends
notes: myc-tagged granzyme B cleavage fragment of intersectin-1s (two EH domains), expressed from DNA plasmid delivered via cationic liposomes

How the values were obtained:
[1] = system: myc-GrB-EHITSN-transfected ECs; test: MTT assay of EC proliferation / cell growth; format: cell-based; conditions: for cell growth / EC proliferative potential (MTT): myc-GrB-EHITSN-transfected ECs, 12.5 μM peptide, 1 h, 37° C., vs transfected ECs not exposed
Protocol: (§1) (c), using phospho (p)-p38 and p38 Abs. […] C. […] Bar: 50 μm. Inset c1. ECCtrl (a) and myc-GrB-EHITSN-ECs (b) lysates resolved on SDS PAGE and transferred to nitrocellulose membranes were overlaid with the PenNFP-FITC.
(§2) ECs stably transfected with the myc-GrB-EHITSN [selected based on neomycin-resistance], were treated with the PenNPF-FITC peptide to address whether inhibition of GrB-EHITSN ameliorates EC proliferation. […] A growth curve was generated to relate the OD^570 values to the cell number per well. […] Inset c1. ECCtrl (a) and myc-GrB-EHITSN-ECs (b) lysates resolved on SDS PAGE and transferred to nitrocellulose membranes were overlaid with the PenNFP-FITC.

[2] = system: phospho-p38; test: WB of cell lysates using phospho (p)-p38 and p38 Abs; format: cell-based; conditions: GrB-EHITSN-transfected ECs, exposure for 24 h
Protocol: as §1, §2

[3] = system: ECs; test: Fluorescence microscopy of peptide internalization; format: cell-based; conditions: 12.5 μM PenNPF-FITC
Protocol: (§3) FIGS. 1A-1C illustrate the effect of the GrB-EHITSN inhibitory peptide on ECs. A. MTT assay applied on ECCtrl, myc-GrB-EHITSN-transfected ECs and myc-GrB-EHITSN-transfected ECs exposed to 12.5 μM PenNFP-FITC peptide for 1 h, 37° C.; p<0.05; WB of cell lysates (inset a1) of ECCtrl (a), myc-GrB-EHITSN-ECs (b) and myc-GrB-EHITSN-ECs+12.5 μM PenNPF for 1 h, 37° C. (c), using phospho (p)-p38 and p38 Abs. B. Quantification of EC proliferation: ECCtrl (a), myc-GrB-EHITSN-ECs (b), myc-GrB-EHITSN-ECs+12.5 μM PenNPF (c), myc-GrB-EHITSN-ECs+12.5 μM Pen-AAA (d), myc-GrB-EHITSN-ECs+12.5 μM Pen (e), myc-GrB-EHITSN-ECs+12.5 μM NPF (f), and myc-GrB-EHITSN-ECs+12.5 μM scrambled penNPF, (g). Data in A and B are mean±SEM of 3 independent experiments performed in triplicates. *p<0.05 vs. ECCtrl. C. Fluorescence microscopy of ECs exposed to 12.5 μM PenNPF-FITC, fixed and mounted on glass slides with Prolong Antifade with DAPI. Bar: 50 μm. Inset c1. ECCtrl (a) and myc-GrB-EHITSN-ECs (b) lysates resolved on SDS PAGE and transferred to nitrocellulose membranes were overlaid with the PenNFP-FITC.
(§4) ECs stably transfected with the myc-GrB-EHITSN [selected based on neomycin-resistance], were treated with the PenNPF-FITC peptide to address whether inhibition of GrB-EHITSN ameliorates EC proliferation. […] A growth curve was generated to relate the OD^570 values to the cell number per well. […]

[4] = biological target: T1, myc-GrB-EHITSN; test: Overlay of lysates on nitrocellulose membranes with FITC peptide, detected by FITC Ab; format: binding; conditions: overlay on myc-GrB-EHITSN-EC lysates; n=3
Protocol: as §3, §4

[5] = system: myc-GrB-EHITSN-mice; test: RVSP measured by right heart catheterization; format: in vivo, mouse
Protocol: FIGS. 3A-3D illustrate representative H&E staining of lung sections of myc-GrB-EHITSN-KDITSN mice (A, a1, B) and RVSP measurements (C) in wt-(bar a), empty-Lipo (bar b) and myc-GrB-EHITSN-mice (bar c), 10 days of GrB-EHITSN treatment. […] Data are mean±SEM. For morphological assessment of peptide internalization (panel D), mice were sacrificed 1 h after injection. Bars: 50 μm (A, B); 20 μm (a1, D). n=3.

[6] = system: BrdU+ ECs; test: BrdU cell proliferation assay in mouse lungs; format: in vivo; conditions: myc-GrB-EHITSN plasmid via cationic liposomes into mouse lungs, day 6 of treatment
Excerpt: FIGS. 2A-2B illustrate the proliferative effect of the GrB-EHITSN fragment on EC in vivo. Wt-mice (B) and myc-GrB-EHITSN-treated mice, day 5 of treatment (A) were subjected to BrdU proliferation assay. Data are mean±SEM. All data are representative of 3 mice in each group. Bars: 20 μm.
(§5) GrB-EHITSN has EC proliferative potential in vivo. To address the proliferative potential of GrB-EHITSN in vivo, the myc-GrB-EHITSN DNA plasmid was delivered via cationic liposomes into mouse lungs. (Knezevic, 2011). […] For continuous and efficient long-term expression of myc-GrB-EHITSN, mice were injected repeatedly every 48 h, for 9 days (Bardita, 2013). Actin was used as loading control. In parallel studies, myc-GrB-EHITSN-transduced mice (FIG. 2B) and wt-controls (FIG. 2A) were subjected to BrdU cell proliferation and morphometric analyses, at day 6 of GrB-EHITSN treatment (Bardita, 2013). BrdU was injected intra-peritoneally every 24 h, for 2 consecutive days (day 4 and 5 of myc-GrB-EHITSN treatment). Incorporated BrdU was detected via BrdU-FITC Ab; CD31 Ab/AlexaFluor 594 was used for positive identification of ECs. For morphological assessment of peptide internalization mice were sacrificed 1 h after injection. […] Data in FIG. 2A-B indicate that the GrB-EHITSN has EC proliferative in vivo.

[7] = system: GrB-EHITSN-mice; test: Fulton's index (RV hypertrophy); format: in vivo, mouse; conditions: means±SEM, p<0.05 vs wt-mice
Excerpt: GrB-EHITSN increases pulmonary pressure in mouse lungs. […] The Fulton's index (RV/left ventricle plus septum), indicative of RV hypertrophy, assessed as in (Qin, 2012) was higher in GrB-EHITSN-mice compared to wt-mice (0.31±0.03 vs. 0.22±0.01; means±SEM; p<0.05).

[8] = WB with myc Ab on lung lysates (expression of the encoded protein); format: in vivo, mouse; conditions: after liposomal plasmid delivery; efficiently expressed at 48 h post-delivery
Protocol: as §5

Molecule	decrease in the number of myc-GrB-EHITSN-transfected cells ([1]; calculated on 3 successive points of growth curve, vs transfected ECs not exposed to peptide)	cell growth / EC proliferative potential (MTT) [1]	OD570 values ([1]; wells with myc-GrB-EHITSN-transfected cells exposed to peptide)	phospho-p38 / p38 activation [2]	internalization by ECs (fluorescent imaging) [3]	interaction with myc-GrB-EHITSN [4]	decrease in RVSP ([5]; myc-GrB-EHITSN-mice, 50 μg PenNPF/mouse)	increase in RVSP compared to wt- and empty liposomes-treated mice ([5]; day 10-post initial GrB-EHITSN delivery)	increase in BrdU+ ECs relative to controls [6]	Fulton's index (RV/left ventricle plus septum) [7]	lifetime of encoded protein in mouse lung [8]
PenNPF-FITC: PenNPF inhibitory peptide carrying a FITC-tag (RQIKIWFQNRRMKWKKPTGSSSTNPFL; also: FITC tag, site not given here)	greater than 35%	inhibits cell growth	close to the OD^570 values of control ECs	phospho-p38 inhibition	efficient internalization	direct interaction	–	–	–	–	–
RQIKIWFQNRRMKWKKPTGSSSTNPFL (PenNPF fusion peptide)	–	decreases the ECs proliferative potential of GrB-EHITSN	–	decreases the ECs proliferative potential of GrB-EHITSN and p38 activation	–	–	20%	–	–	–	–
B1	–	–	–	–	–	–	–	1.36 fold	more than 1.6 fold	0.31±0.03	about 72 h
